Results: US11993576B2, “N-benzyl-N-arylsulfonamide derivative and preparation and use thereof” (Hangzhou Yirui Pharmaceutical Technology Co., Ltd, priority 2019, dated 2024)
pIC50: −log10 of the molar value.

Each compound was assayed against human Kv1.3 (Homo sapiens, UniProt P22001) (assay: IonWorks automated patch clamp assay of inhibitory activity against Kv1.3). Conditions: automated patch clamp method; CHO-K1 cells stably expressing human Kv1.3.
Assay type: cell-based
Method: I. IonWorks Automated Patch Clamp Assay of Inhibitory Activity Against Kv1.3
The principle and method for Kv1.3 IonWorks assay can be found in Schroeder et al. [Schroeder et al. J Biomol Screen 2003, 8(1):50-64]
Inhibitory activity of the compounds against Kv1.3 was assessed using a CHO-K1 recombinant cell line stably expressing human Kv1.3 (Charles River, Calif.). The cells were cultured in an F-12K culture medium containing 5% calf serum (Invitrogen, Carlsbad. Calif.) in an incubator at 37° C. and under air humidity with 6% CO2. Prior to be fed in the IonWorks system, the adherent cells were treated with Versene at 37° C. for 6-7 min. After gently beating the culture flask, the cells were re-suspended in a PBS phosphate buffer, and then were centrifuged at 50×g for 4 min. After a short grinding, the cells were eventually re-suspended in an external recording solution at a density of approximately 1×10^6/mL.
The compounds were dissolved in DMSO to formulate a final assay concentration of 300× on the master plate. The final gradient assay concentrations were […], 0.096, 0.048, 0.24, 1.2, 6 and 30 μM. All 300× stock solutions of each compound in DMSO were transferred to a 384-well plate with 2 μl per well. The plates were sealed and stored at −80° C. until the day of assay.
On the day of assay, the plates were each thawed at room temperature. After centrifugation, 198 μl of the external recording solution (with the components of: 130 mM Na-Gluconate, 20 mM NaCl, 4 mM KCl, 1 mM MgCl2, 1.8 mM CaCl2, 5 mM Glucose and 10 mM HEPES, pH7.3) was added and mixed thoroughly. This step provided a 1:100 dilution for the compounds. After addition of cells to IonWorks, a further 1:3 dilution was carried out, resulting in a total dilution of 1:300. At least 8 wells were reserved as blank control on each of the plates, i.e., containing only 0.3% DMSO. In addition, at least 8 wells were reserved as positive control to detect the specificity to cell signals. Fluoxetine, a compound as the positive control, was assayed at its maximum blocking concentration (100 μm) and secondary maximum blocking concentration (10 μm). In addition, an internal recording solution used in the assay (with the components of: 100 mM K-gluconate, 40 mM KCl, 1 mM MgCl2, 1 mM EGTA and 10 mM HEPES, pH7.3) contained Amphotericin B at a final concentration of 200 μg/mL to gain current channels inside the cells. The osmotic pressure of the solution was adjusted with sucrose.
Experimental procedures were carried out following the protocols as set by IonWorks Quattro system (Molecular Devices, San Jose, CA). The current of human Kv1.3 was elicited to 0 millivolt (mV) for four times by a pulse lasting 1 second. A potential of −80 mV was maintained between pulses, for 5 seconds. First, a early voltage application program was started in the IonWorks Quattro system, and then the compounds were added and incubated for 600 seconds. Next, a late voltage application program was started until completion of all assays.
The maximum peak outward currents both before and after addition of the compounds as well as the average tail current elicited when the fourth pulse rose to 0 mV were measured. The inhibitory activity of the compounds against Kv1.3 can be calculated by dividing the measured current amplitude after addition of the compounds by the measured current amplitude before addition of the compounds.
All data was calibrated by a data filtration program of the IonWorks Quattro system. The filtration standard was that: seal quality >30 MΩ, decrease of seal resistance <50% and current amplitude >200 pA.

Sequence of human Kv1.3 (P22001 whole entry): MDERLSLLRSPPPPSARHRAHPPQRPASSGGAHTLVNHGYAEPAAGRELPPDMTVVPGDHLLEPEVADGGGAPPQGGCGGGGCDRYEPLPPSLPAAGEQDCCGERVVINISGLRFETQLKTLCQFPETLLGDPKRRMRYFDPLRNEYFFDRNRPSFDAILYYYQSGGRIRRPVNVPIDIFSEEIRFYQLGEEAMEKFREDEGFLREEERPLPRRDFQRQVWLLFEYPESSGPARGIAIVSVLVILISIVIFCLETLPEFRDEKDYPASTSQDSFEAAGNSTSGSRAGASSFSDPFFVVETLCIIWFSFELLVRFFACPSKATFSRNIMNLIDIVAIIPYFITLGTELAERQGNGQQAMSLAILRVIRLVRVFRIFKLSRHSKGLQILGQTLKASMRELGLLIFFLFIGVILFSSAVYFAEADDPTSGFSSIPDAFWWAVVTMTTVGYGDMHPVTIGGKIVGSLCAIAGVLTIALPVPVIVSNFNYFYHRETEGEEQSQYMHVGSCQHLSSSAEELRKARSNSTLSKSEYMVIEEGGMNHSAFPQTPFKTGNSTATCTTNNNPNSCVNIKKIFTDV

With `CC(C)CCS(=O)(=O)N(Cc1ccc(F)cc1)c1ccc(N2CCN(C(=O)N(C)C)CC2)c(C#N)c1` [Compound 39, 4-(2-cyano-4-((N-(4-fluorobenzyl)-3-methylbutyl)sulfonamido)phenyl)-N,N-dimethylpiperazin-1-formamide] as the compound, how does the pIC50 read?
The pIC50 was 6.81.

With `CC(=O)OC1CCN(c2ccc(N(Cc3ccccc3)S(=O)(=O)c3ccccc3)cc2C#N)CC1` [Compound 7, N-benzyl-N-(3-cyano-4-(4-acetyloxypiperidin-1-yl)phenyl)benzenesulfonamide] as the compound, how does the pIC50 read?
The pIC50 was 6.51.

With `CCCS(=O)(=O)N(Cc1ccc(OC)cc1F)c1ccc(N2CCN(C(=O)OCC)CC2)c(C#N)c1` [Compound 29, Ethyl 4-(2-cyano-4-(N-(2-fluoro-4-methoxybenzyl)propanesulfonamido)phenyl)piperazin-1-formate] as the compound, how does the pIC50 read?
The pIC50 was 6.36.

With `CN(C)S(=O)(=O)N1CCN(c2ccc(N(Cc3ccc(F)cc3F)S(=O)(=O)CC3CC3)cc2C#N)CC1` [Compound 47, 4-(2-cyano-4-((1-cyclopropyl-N-(2,4-difluorobenzyl)methyl)sulfonamido)phenyl)-N,N-dimethylpiperazin-1-sulfonamide] as the compound, how does the pIC50 read?
Its pIC50 is 6.91.

`CN(C)C(=O)N1CCN(c2ccc(N(Cc3ccccc3)S(=O)(=O)c3ccccc3)cc2C#N)CC1` [Compound 11, 4-(4-(N-benzylbenzenesulfonamido)-2-cyanophenyl)-N,N-dimethylpiperazin-1-formamide] was tested. Which pIC50 did it give?
Its pIC50 is 6.71.

How did the pIC50 turn out when `CCCS(=O)(=O)N(Cc1ccc(F)cc1)c1ccc(SC2CCN(C=O)CC2)c(C#N)c1` [Compound 57, N-(4-((1-formylpiperidin-4-yl)thio)-3-cyanophenyl)-N-(4-fluorobenzyl) propanesulfonamide] was run?
The pIC50 was 6.60.

`CCCN(c1ccc(N2CCN(C(=O)OCC)CC2)c(C#N)c1)S(=O)(=O)c1ccc(F)cc1` [Compound 8, Ethyl 4-(2-cyano-4-((4-fluoro-N-propylphenyl)sulfonamido)phenyl)piperazin-1-formate] was tested. Which pIC50 did it give?
Its pIC50 is 5.03.

How did the pIC50 turn out when `CCCS(=O)(=O)N(Cc1ccc(F)cc1)c1ccc(N2CCN(C(=O)OCC)CC2)c(C#N)c1` [Compound 9, ethyl 4-(2-cyano-4-(N-(4-fluorobenzyl)propanesulfonamido)phenyl)piperazin-1-formate] was run?
The pIC50 was 6.87.

`CN1CCCN(c2ccc(N(Cc3ccccc3)S(=O)(=O)c3ccccc3)cc2C#N)C1=O` [Compound 17, N-benzyl-N-(3-cyano-4-(3-methyl-2-oxotetrahydropyrimidin-1(2H)-yl)phenyl)benzenesulfonamide] was tested. Which pIC50 did it give?
The pIC50 was 6.72.

`N#Cc1cc(N(Cc2ccc(F)cc2)S(=O)(=O)c2ccccc2)ccc1N1CCOCC1` [Compound 10, N-(3-cyano-4-morpholinylphenyl)-N-(4-fluorobenzyl) benzenesulfonamide] was tested. Which pIC50 did it give?
Its pIC50 is 7.01.

With `CCCS(=O)(=O)N(Cc1cccc(F)c1)c1ccc(N2CCN(C(=O)OCC)CC2)c(C#N)c1` [Compound 23, Ethyl 4-(2-cyano-4-(N-(3-fluorobenzyl)propanesulfonamido)phenyl) piperazin-1-formate] as the compound, how does the pIC50 read?
The pIC50 was 6.75.

How did the pIC50 turn out when `CCCS(=O)(=O)N(Cc1ccc(F)cc1)c1ccc(NC2CCNCC2)c(C#N)c1` [Compound 52, N-(3-cyano-4-(piperidin-4-ylamino)phenyl)-N-(4-fluorobenzyl) propanesulfonamide] was run?
The pIC50 was 6.86.

`CCS(=O)(=O)N(Cc1ccc(F)cc1)c1ccc(N2CCN(S(=O)(=O)N(C)C)CC2)c(C#N)c1` [Compound 43, 4-(2-cyano-4-(N-(4-fluorobenzyl)ethanesulfonamido)phenyl)-N,N-dimethylpiperazin-1-sulfonamide] was tested. Which pIC50 did it give?
The pIC50 was 6.91.

With `CCOC(=O)N1CCN(c2ccc(N(C(=O)c3ccccc3)S(=O)(=O)c3ccccc3)cc2C#N)CC1` [Compound 4, ethyl 4-(2-cyano-4-(N-(benzenesulfonamido)benzamido)phenyl)piperazin-1-formate] as the compound, how does the pIC50 read?
Its pIC50 is 4.89.

With `N#Cc1cc(N(Cc2ccccc2)S(=O)(=O)c2ccccc2)ccc1N1CCC(=O)CC1` [Compound 5, N-benzyl-N-(3-cyano-4-(4-oxopiperidin-1-yl)phenyl) benzenesulfonamide] as the compound, how does the pIC50 read?
Its pIC50 is 6.73.

How did the pIC50 turn out when `CCOC(=O)N1CCN(c2ccc(N(Cc3ccccc3)S(=O)(=O)c3ccccc3)cc2C#N)CC1` [Compound 1, ethyl 4-(4-(N-benzylbenzenesulfonamido)-2-cyanophenyl)piperazin-1-formate] was run?
Its pIC50 is 6.58.

With `N#Cc1cc(N(Cc2ccccc2)S(=O)(=O)c2ccccc2)ccc1N1C(=O)CCCC1=O` [Compound 16, N-benzyl-N-(3-cyano-4-(2,6-dioxopiperidin-1-yl)phenyl)benzenesulfonamide] as the compound, how does the pIC50 read?
The pIC50 was 5.90.

`CCCS(=O)(=O)N(Cc1ccnn1C)c1ccc(N2CCN(C(=O)OCC)CC2)c(C#N)c1` [Compound 36, Ethyl 4-(2-cyano-4-(N-((1-methyl-1H-pyrazol-5-yl)methyl)propanesulfon-amido)phenyl)piperazin-1-formate] was tested. Which pIC50 did it give?
Its pIC50 is 6.89.

`CCCS(=O)(=O)N(Cc1cncn1C)c1ccc(N2CCN(C(=O)OCC)CC2)c(C#N)c1` [Compound 35, Ethyl 4-(2-cyano-4-(N-((1-methyl-1H-imidazol-5-yl)methyl)propanesulfonamido)phenyl)piperazin-1-formate] was tested. Which pIC50 did it give?
The pIC50 was 6.70.

`CN(C)C(=O)N1CCN(c2ccc(N(Cc3ccc(F)cc3)S(=O)(=O)CC(C)(C)C)cc2C#N)CC1` [Compound 40, 4-(2-cyano-4-((N-(4-fluorobenzyl)-2,2-dimethylpropyl)sulfonamido)phenyl)-N,N-dimethylpiperazin-1-formamide] was tested. Which pIC50 did it give?
Its pIC50 is 6.69.

`CCCS(=O)(=O)N(Cc1ccncn1)c1ccc(N2CCN(C(=O)OCC)CC2)c(C#N)c1` [Compound 31, Ethyl 4-(2-cyano-4-(N-(pyrimidin-4-ylmethyl)propanesulfonamido)phenyl) piperazin-1-formate] was tested. Which pIC50 did it give?
Its pIC50 is 6.39.

`CCCS(=O)(=O)N(Cc1ccc(F)cc1)c1ccc(OC2CCN(C=O)CC2)c(C#N)c1` [Compound 56, N-(4-((1-formylpiperidin-4-yl)oxy)-3-cyanophenyl)-N-(4-fluorobenzyl) propanesulfonamide] was tested. Which pIC50 did it give?
The pIC50 was 6.60.

`CCCS(=O)(=O)N(Cc1ccccc1)c1ccc(N2CCN(C(=O)OCC)CC2)c(C#N)c1` [Compound 22, Ethyl 4-(4-(N-benzylpropanesulfonamido) 2-cyanophenyl)piperazin-1-formate] was tested. Which pIC50 did it give?
The pIC50 was 6.48.

How did the pIC50 turn out when `CCCS(=O)(=O)N(Cc1ccc(F)cc1)c1ccc(OC2CCN(C(C)=O)CC2)c(C#N)c1` [Compound 53, N-(4-((1-acetylpiperidin-4-yl)oxy)-3-cyanophenyl)-N-(4-fluorobenzyl) propanesulfonamide] was run?
The pIC50 was 6.54.

`N#Cc1cc(N(Cc2ccccc2)S(=O)(=O)c2ccccc2)ccc1OC1CCN(C=O)CC1` [Compound 60, N-(4-((1-formylpiperidin-4-yl)oxy)-3-cyanophenyl)-N-benzylbenzenesulfonamide] was tested. Which pIC50 did it give?
The pIC50 was 6.48.

How did the pIC50 turn out when `CCCS(=O)(=O)N(Cc1ccc(F)cc1)c1ccc(NC2CCN(C=O)CC2)c(C#N)c1` [Compound 58, N-(4-((1-formylpiperidin-4-yl)amino)-3-cyanophenyl)-N-(4-fluoro-benzyl)propanesulfonamide] was run?
Its pIC50 is 6.55.

With `CCOC(=O)N1CCN(c2ccc(N(Cc3ccc(F)cc3)S(=O)(=O)c3ccc(F)cc3)cc2C#N)CC1` [Compound 2, ethyl 4-(2-cyano-4-((4-fluoro-N-(4-fluorobenzyl)phenyl)sulfonamido)phenyl)piperazin-1-formate] as the compound, how does the pIC50 read?
Its pIC50 is 6.88.
